This note sets out measurements from patent publication US20260297060A1, “COMPOUNDS FOR THE DEGRADATION OF MUTANT BRAF” (C4 THERAPEUTICS, INC., priority 2023, published 2026).

Read-outs that look alike come from different tables or passages of the source.

Data set [1] in a line: Example 7 pharmacokinetics assay for PKPD study (plasma, tumor, liver). The format is in vivo, BALB/c nude mice. To be noted: mouse, po, 10 mg/kg, p.o., single dose. The method, then:
For the PK and PD study, agents were administered to BALB/c nude mice bearing A375 human melanoma xenografts tumors. Dabrafenib, Compound 141, Compound 118, Compound 156, and Compound 180 were dosed p.o. once on day 1. Known BRAF inhibitor Dabrafenib was used as a positive control. Dabrafenib was dosed at 100 mg/kg. Compound 141, Compound 118, Compound 156, and Compound 180 were dosed at 10 mg/kg.
The plasma samples were collected at predetermined time points for PK analysis. The mice were euthanized at predetermined time points post the treatment. The blood samples were collected into the 1.5 mL Eppendorf tubes containing 15 μL of 0.5 M EDTA-K2. And then the anticoagulant blood samples were centrifuged at 2,500 g at 4° C. for 15 minutes. The plasma samples were separated into 2 aliquots. The 1st was used for PK analysis, and the 2nd served as backup. The samples were stored at −80° C. before bioanalysis.
The tumor samples were collected at predetermined time points for PK and WB analysis. The tumor was dissected out and split into 3 parts. The 1st part was used for PK analysis, the 2nd part was used for WB analysis and the last one served as backup for study. The samples were transferred into pre-labeled tubes and quickly froze in liquid nitrogen within 2 minutes after dissection. The samples were stored at −80° C. before bioanalysis.
Liver samples were collected at predetermined time points for PK analysis. The left lobe of the liver was dissected out and split into 2 parts. The 1st part was used for PK analysis and the 2nd part served as the backup for the study. The samples were transferred into pre-labeled tubes and quickly froze in liquid nitrogen within 2 minutes after dissection. The samples were stored at −80° C. before bioanalysis.
The harvested plasma and liver samples were processed for pharmacokinetics analysis by LC-MS/MS with a concentration range of 0.500-1000 ng/mL for Dabrafenib, Compound 118 and Compound 180 in plasma, 0.100~200 ng/ml for Dabrafenib in Liver and tumor homogenate, 50.0~50,000 ng/mL for Compound 141 in plasma and Liver homogenate, 1.00-1000 ng/ml for Compound 141 in tumor homogenate, 2.00~2000 ng/mL for Compound 118 and Compound 180 in Liver and 0.200~200 ng/ml in tumor homogenate, 1.00~2000 ng/mL for Compound 156 in plasma, 0.500-1000 ng/ml in liver and 0.500-1,000 ng/ml in tumor homogenate.

For data set [2], the system named is A375 tumors. The data set can be described thus: In vivo efficacy, A375 xenograft tumor volume (Example 7). Also noted: species or system human A375 melanoma xenograft in female BALB/c nude mice. To be noted: oral, FIG. 14; for tumor regressions in the xenograft model: 10 mg/kg BID, A375 xenografts; for antitumor response compared with comparators dabrafenib or encorafenib: A375 human melanoma xenografts. The method, then:
FIG. 14 is a line graph showing in vivo efficacy of dabrafenib, Compound 141, Compound 118, Compound 156, and Compound 180 in the treatment of female BALB/c nude mice bearing A375 tumors. Mice were treated with vehicle (10 μL/g, p.o., BID), dabrafenib (100 mg/kg, p.o., QD), Compound 141 (10 mg/kg, p.o., QD), Compound 141 (10 mg/kg, p.o., BID), Compound 118 (10 mg/kg, p.o., BID), Compound 156 (10 mg/kg, p.o., BID), or Compound 180 (10 mg/kg, p.o., BID) by oral gavage (p.o.). Data points represent group mean change in tumor volume. Error bars represent standard error of the mean (SEM). The x-axis is the time measured in days and the y-axis is A375 tumor volume measured in mm^3. The experiment was conducted as described in Example 7.
In general terms: Xenograft models place foreign cells or tissue in a host animal.

[3] abbreviates: liver, read-out: Concentration in Liver (mean ± SEM).
Setting [4] is: plasma, read-out: Concentration in Plasma (mean ± SEM).
Setting [5] is: tumor, read-out: Concentration in Tumor (mean ± SEM).

For the compound `CCN(C)S(=O)(=O)Nc1ccc(F)c(Oc2ccc3ncn(C4CC5(CCN(C6CC7(C6)CN(c6cc8c(cc6F)c(N6CCC(=O)NC6=O)nn8C)C7)CC5)C4)c(=O)c3c2)c1C#N` (stereo not drawn) [Compound 141, 6-[2-cyano-3-[[ethyl(methyl)sulfamoyl]amino]-6-fluoro-phenoxy]-3-[7-[2-[3-(2,4-dioxohexahydropyrimidin-1-yl)-5-fluoro-1-methyl-indazol-6-yl]-2-azaspiro[3.3]heptan-6-yl]-7-azaspiro[3.5]nonan-2-yl]-4-oxo-quinazoline], in data set [1] (setting [3]), the concentration at 6 h was found to be 9730 ± 1380 ng/g and the concentration at 12 h was 3050 ± 618 ng/g. Also, in data set [1] (setting [4]), the concentration at 1 h came out at 17700 ± 924 ng/mL, the concentration at 6 h is 10700 ± 1420 ng/mL, the concentration at 12 h was 2530 ± 365 ng/mL and the concentration at 24 h was 219 ± 74.6 ng/mL. Further, in data set [1] (setting [5]), the concentration at 1 h is 2120 ± 109 ng/g, the concentration at 6 h came out at 2230 ± 114 ng/g, the concentration at 12 h was 818 ± 121 ng/g and the concentration at 24 h worked out at 75.4 ± 24.3 ng/g. Further, in data set [2], the “tumor regressions in the xenograft model” value is reported as “profound tumor regressions” and the “antitumor response compared with comparators dabrafenib or encorafenib” value is reported as “more robust antitumor response”.

`CCN(C)S(=O)(=O)Nc1ccc(F)c(Oc2ccc3ncc(OCC4CCN(C5CCC(c6cc7c(cc6F)c(N6CCC(=O)NC6=O)nn7C)CC5)CC4)nc3c2)c1C#N` (single isomer, unassigned) [Compound 118, 7-[2-cyano-3-[[ethyl(methyl)sulfamoyl]amino]-6-fluoro-phenoxy]-2-[[1-[4-[3-(2,4-dioxohexahydropyrimidin-1-yl)-5-fluoro-1-methyl-indazol-6-yl]cyclohexyl]-4-piperidyl]methoxy]quinoxaline]: in data set [1] (setting [3]), the concentration at 6 h stood at 103000 ± 9270 ng/g and the concentration at 12 h amounted to 111000 ± 12000 ng/g. In data set [1] (setting [4]), the concentration at 1 h was determined as 1240 ± 90.2 ng/mL, the concentration at 6 h was 1500 ± 574 ng/mL, the concentration at 12 h is 985 ± 234 ng/mL and the concentration at 24 h came out at 595 ± 81.8 ng/mL. In data set [1] (setting [5]), the concentration at 1 h is 345 ± 57.4 ng/g, the concentration at 6 h was determined as 855 ± 257 ng/g, the concentration at 12 h came out at 509 ± 101 ng/g and the concentration at 24 h was determined as 254 ± 7.8 ng/g. In data set [2], the “tumor regressions in the xenograft model” value is “profound tumor regressions” and the “antitumor response compared with comparators dabrafenib or encorafenib” value is given as “more robust antitumor response”.

As for `CCN(C)S(=O)(=O)Nc1ccc(F)c(Oc2ccc3ncn(C4CC5(CCN(C6CCN(c7cc8c(cc7F)c(N7CCC(=O)NC7=O)nn8C)CC6)CC5)C4)c(=O)c3c2)c1C#N` [Compound 156, 6-[2-cyano-3-[[ethyl(methyl)sulfamoyl]amino]-6-fluoro-phenoxy]-3-[7-[1-[3-(2,4-dioxohexahydropyrimidin-1-yl)-5-fluoro-1-methyl-indazol-6-yl]-4-piperidyl]-7-azaspiro[3.5]nonan-2-yl]-4-oxo-quinazoline], in data set [1] (setting [3]), the concentration at 6 h came out at 1460 ± 170 ng/g and the concentration at 12 h stood at 262 ± 100 ng/g. In addition, in data set [1] (setting [4]), the concentration at 1 h came out at 4130 ± 545 ng/mL, the concentration at 6 h is 805 ± 85.2 ng/mL, the concentration at 12 h came out at 111 ± 46.3 ng/mL and the concentration at 24 h was 1.78 ± 0.554 ng/mL. For the same compound, in data set [1] (setting [5]), the concentration at 1 h came out at 758 ± 66.9 ng/g, the concentration at 6 h came to 295 ± 30.3 ng/g, the concentration at 12 h came out at 102 ± 35.6 ng/g and the concentration at 24 h was determined as 33.5 ng/g. In data set [2], the “tumor regressions in the xenograft model” value was “profound tumor regressions” and the “antitumor response compared with comparators dabrafenib or encorafenib” value is given as “more robust antitumor response”.
